Experimental data as given in publication PMC9166766 (Experimental & Molecular Medicine, 2022).
No end group written: not given here.

Tests used:
[1] = tested on: Jurkat T cells (PMA and ionomycin-induced gene expression); test: mRNA sequencing of activated Jurkat T cells; type: cell-based, human; conditions: P+I 8 h
Protocol: We then extracted RNA from these cells. Construction of the cDNA library and next-generation sequencing was performed at LAS (Gimpo, Korea). We sequenced all samples on an Illumina NextSeq 500 system with 75 paired-end reads. For the RNA sequencing analysis, reads for each sample were aligned to the human genome (GRCh37/hg19 genome assembly) using STAR 2.4.0.1[25] with default settings. We used HOMER tools to quantify and normalize the defined genes in RefSeq transcripts. FPKM normalized genes were hierarchically clustered using Cluster3.0[26]. We visualized refined data with Java Treeview (http://jtreeview.sourceforge.net). We conducted gene ontology analysis of each cluster using the DAVID web tool (https://david.ncifcrf.gov). Finally, we visualized the expression levels of target genes using the Integrative Genomics Viewer (http://software.broadinstitute.org/software/igv). The raw data were submitted to the NCBI Gene Expression Omnibus under accession number GSE185561.
Fig. 3 The CABIN1 peptide inhibits T-cell activation. a Heatmap of altered genes affected by FK506 treatment or CABIN1 peptide expression upon T-cell activation. b Gene Ontology analysis of cluster III. c mRNA expression levels of genes included in cluster III. d qRT-PCR data of genes in c. The experiment was independently repeated at least three times, and the data are presented as the mean ± standard deviation. Statistical differences were determined using two-tailed Student’s t-test. *p < 0.05, **p < 0.01, ***p < 0.001, NC negative control.

[2] = tested on: Jurkat T cells (T-cell activation gene mRNA); test: Real-time quantitative PCR of activated Jurkat T cells; type: cell-based; conditions: PMA and ionomycin
Description: We collected Jurkat T cells with QIAzol Lysis Reagent (Qiagen) to extract total RNA. We reverse transcribed cDNAs from isolated RNA using AMV Reverse Transcriptase and random hexamers. We performed real-time quantitative PCR for each cDNA using TB Green® Premix Ex Taq™ (TaKaRa, Kusatsu, Japan) on a CFX Connect Real-time PCR Detection System (Bio-Rad, Hercules, CA, USA) and normalized the expression to that of 18 S rRNA or GAPDH.

“CABIN1-L-1-2: 10 amino acids from proline 2146 to proline 2155 of full-length CABIN1; expressed GST-, GAL4 DBD- or HA-mCherry-tagged (PEITVTPPTP; also: expressed GST-, GAL4 DBD- or HA-mCherry-tagged, end not given here)” was tested, and the LOC729603 expression ([1]; NC 1.468, NC_P+I 5.071) was 3.329 FPKM, the PDGFA expression ([1]; NC 1.497, NC_P+I 26.809) was 8.169 FPKM and the PHACTR2 expression ([1]; NC 1.659, NC_P+I 9.467) was 2.791 FPKM. The CABP1 expression ([1]; NC 1.702, NC_P+I 5.834) was 1.689 FPKM, the POU2AF1 expression ([1]; NC 1.84, NC_P+I 36.298) was 2.971 FPKM and the SPRY1 expression ([1]; NC 2.079, NC_P+I 12.391) was 4.901 FPKM. It also gave a GFOD1 expression ([1]; NC 2.283, NC_P+I 12.861) of 6.312 FPKM, a DSTYK expression ([1]; NC 2.356, NC_P+I 7.198) of 3.595 FPKM and an FMNL2 expression ([1]; NC 2.395, NC_P+I 6.813) of 3.019 FPKM. The ADORA2A expression ([1]; NC 2.492, NC_P+I 11.633) was 1.475 FPKM, the CD27 expression ([1]; NC 2.525, NC_P+I 27.462) was 3.4 FPKM and the TNFRSF4 expression ([1]; NC 2.597, NC_P+I 31.683) was 11.916 FPKM. It also gave an REL expression ([1]; NC 2.654, NC_P+I 20.219) of 5.699 FPKM, a JAK2 expression ([1]; NC 2.788, NC_P+I 26.566) of 8.45 FPKM and an LRRC8B expression ([1]; NC 2.89, NC_P+I 28.699) of 4.298 FPKM. For the same substance, the NPDC1 expression ([1]; NC 3.008, NC_P+I 8.759) was 5.64 FPKM, the CD27-AS1 expression ([1]; NC 3.088, NC_P+I 14.958) was 4.613 FPKM and the CST7 expression ([1]; NC 3.315, NC_P+I 14.15) was 3.175 FPKM. It also gave a TAGAP expression ([1]; NC 3.351, NC_P+I 128.498) of 8.731 FPKM, a CD55 expression ([1]; NC 3.587, NC_P+I 39.451) of 12.082 FPKM and a GTDC1 expression ([1]; NC 3.595, NC_P+I 10.378) of 5.144 FPKM. For the same substance, the KCNK5 expression ([1]; NC 3.84, NC_P+I 14.865) was 4.904 FPKM, the MYO1D expression ([1]; NC 4.114, NC_P+I 11.118) was 5.995 FPKM and the RDH10 expression ([1]; NC 4.125, NC_P+I 19.889) was 5.524 FPKM. For the same substance, the COL27A1 expression ([1]; NC 4.149, NC_P+I 17.216) was 5.729 FPKM, the PLK3 expression ([1]; NC 4.432, NC_P+I 14.807) was 7.036 FPKM and the NFATC1 expression ([1]; NC 4.511, NC_P+I 15.287) was 3.916 FPKM. The ASAP1 expression ([1]; NC 4.678, NC_P+I 18.37) was 9.052 FPKM, the GRK5 expression ([1]; NC 5.451, NC_P+I 21.464) was 8.975 FPKM and the CCDC64 expression ([1]; NC 5.477, NC_P+I 33.545) was 11.039 FPKM. It also gave an ATG14 expression ([1]; NC 5.727, NC_P+I 30.239) of 11.252 FPKM, a PELI1 expression ([1]; NC 5.755, NC_P+I 16.085) of 8.465 FPKM and an ARHGEF3 expression ([1]; NC 6.146, NC_P+I 31.337) of 8.674 FPKM. The PKIA expression ([1]; NC 6.444, NC_P+I 49.019) was 18.138 FPKM, the LTBP4 expression ([1]; NC 7.304, NC_P+I 33.466) was 9.568 FPKM and the LAMP3 expression ([1]; NC 8.064, NC_P+I 31.61) was 9.828 FPKM. The LAX1 expression ([1]; NC 8.344, NC_P+I 24) was 7.578 FPKM, the PTPN22 expression ([1]; NC 8.928, NC_P+I 45.38) was 5.119 FPKM and the VAMP1 expression ([1]; NC 9.566, NC_P+I 50.97) was 14.752 FPKM. For the same substance, the NINJ1 expression ([1]; NC 10.319, NC_P+I 76.622) was 54.452 FPKM, the KCNK1 expression ([1]; NC 10.828, NC_P+I 36.893) was 13.139 FPKM and the CD97 expression ([1]; NC 10.97, NC_P+I 49.481) was 21.496 FPKM. The FBXO34 expression ([1]; NC 11.735, NC_P+I 48.015) was 18.386 FPKM, the TBC1D20 expression ([1]; NC 11.844, NC_P+I 35.808) was 18.427 FPKM and the MIR6775 expression ([1]; NC 12.409, NC_P+I 50.527) was 21.57 FPKM. It also gave an AGK expression ([1]; NC 14.395, NC_P+I 39.056) of 14.306 FPKM, an FYN expression ([1]; NC 14.671, NC_P+I 58.084) of 15.512 FPKM and an MIR6821 expression ([1]; NC 17.553, NC_P+I 62.894) of 25.116 FPKM. For the same substance, the NDFIP1 expression ([1]; NC 19.638, NC_P+I 54.615) was 24.432 FPKM, the TBC1D4 expression ([1]; NC 20.739, NC_P+I 73.749) was 13.191 FPKM and the MAP2K3 expression ([1]; NC 21.676, NC_P+I 144.057) was 43.237 FPKM. The PTPN6 expression ([1]; NC 22.163, NC_P+I 77.092) was 20.806 FPKM, the FXYD5 expression ([1]; NC 25.643, NC_P+I 101.352) was 42.856 FPKM and the BCL2L1 expression ([1]; NC 31.375, NC_P+I 113.956) was 41.852 FPKM. It also gave an ATP6V1B2 expression ([1]; NC 33.172, NC_P+I 129.395) of 60.661 FPKM, a PIM3 expression ([1]; NC 37.434, NC_P+I 180.382) of 72.895 FPKM and a PPIF expression ([1]; NC 58.328, NC_P+I 188.301) of 106.533 FPKM. For the same substance, the “NINJ1 and ZP4 expression upon T-cell activation” value ([2]; Supplementary Fig. 5a, b) was “unaffected” and the “RNA levels of T-cell activation genes (qRT-PCR) vs VIVIT peptide” value ([2]; at least three repeats) was “reduced the RNA levels of these genes more efficiently than the VIVIT peptide”.
